Measurements published in patent US20110319362A1, “STAT3 LIGANDS AND THERAPEUTIC USES THEREOF” (priority 2008, published 2011).
Read-outs that look alike come from different tables or passages of the source.

Legend:
STAT3 protein = target: T1, STAT3 protein (Homo sapiens, UniProt P40763); assay: In vitro competitive STAT3 binding assay (fluorescence polarization)
T1 construct: human STAT3 protein (residues 122-722) fused to His-tag; His-tag
From the text: To quantitatively determine the binding affinities of STAT3 inhibitors to STAT3 protein, a sensitive and quantitative in vitro binding assay was developed based upon fluorescence polarization (FP) method. For this FP assay, 5-carboxyfluorescein (5-Fam) was coupled to a phosphopeptide (phospho-Tyr-Leu-Pro-Gln-Thr-Val-amide) with two beta-alanine and one glycine residues as the spacer between 5-Fam and the phosphopeptide to obtain 5-Fam-beta-Ala-beta-Ala-Gly-phospho-Tyr-Leu-Pro-Gln-Thr-Val-amide as the fluorescently tagged tracer, which was named as STT2 peptide. […] The recombinant human STAT3 protein (residues 122-722) fused to His-tag was stable and soluble.
Competitive binding experiments were carried out using 150 nM of STAT3 protein and 5 nM of STT2 peptide with different concentrations of a tested STAT3 inhibitor. For each experiment, two controls were included. One control contained STAT3 protein and STT2 peptide, and the second control contained STT2 peptide only. The polarization values were measured after 2-3 hours of incubation using an ULTRA READER (Tecan U.S. Inc., Research Triangle Park, N.C.). IC50 values, the inhibitor concentration at which 50% of the fluorescently tagged STT2 peptide is displaced by STAT3 inhibitors, was determined from a plot using nonlinear least-squares analysis using GRAPHPAD PRISM software (GraphPad Software, Inc., San Diego, Calif.). […]

[1] = tested on: MDA-MB-231 cancer cell line; assay: Cell growth assay (WST-8); assay type: cell-based; conditions: Homo sapiens, MDA-MB-231, 96 h; WST-8, 4 days; read-out: Inhibition of cell growth IC50, MDA-MB-231 cancer cell line
Description: (§1) The effect of STAT3 compounds on cell growth was evaluated by a WST-8 [2-(2-methoxy-4-nitrophenyl)-3-(4-nitrophenyl)-5-(2,4-disulfophenyl)-2H-tetrazolium, monosodium salt assay (Dojindo Molecular Technologies, Inc). Cells (3000-4000 cells in each well) were cultured in 96-well tissue culture plates in medium (200 μL) containing various concentrations of STAT3 compounds for 4 days. At the end of incubation, WST-8 dye (20 μL) was added to each well and incubated for an additional 1-3 h, and then the absorbance was measured in a microplate reader (Molecular Devices) at 450 nm. Cell growth inhibition was evaluated as the ratio of the absorbance of the sample to that of the control.

[2] = tested on: MDA-MB-468 cancer cell line; assay: Cell growth assay (WST-8); assay type: cell-based; conditions: Homo sapiens, MDA-MB-468, 96 h; WST-8, 4 days; read-out: Inhibition of cell growth IC50, MDA-MB-468 cancer cell line
Description: as §1

[3] = FP competitive binding, fluorescently tagged STT2 peptide tracer, read-out: Binding affinities to STAT3 IC50

T1 sequence (P40763 122-722): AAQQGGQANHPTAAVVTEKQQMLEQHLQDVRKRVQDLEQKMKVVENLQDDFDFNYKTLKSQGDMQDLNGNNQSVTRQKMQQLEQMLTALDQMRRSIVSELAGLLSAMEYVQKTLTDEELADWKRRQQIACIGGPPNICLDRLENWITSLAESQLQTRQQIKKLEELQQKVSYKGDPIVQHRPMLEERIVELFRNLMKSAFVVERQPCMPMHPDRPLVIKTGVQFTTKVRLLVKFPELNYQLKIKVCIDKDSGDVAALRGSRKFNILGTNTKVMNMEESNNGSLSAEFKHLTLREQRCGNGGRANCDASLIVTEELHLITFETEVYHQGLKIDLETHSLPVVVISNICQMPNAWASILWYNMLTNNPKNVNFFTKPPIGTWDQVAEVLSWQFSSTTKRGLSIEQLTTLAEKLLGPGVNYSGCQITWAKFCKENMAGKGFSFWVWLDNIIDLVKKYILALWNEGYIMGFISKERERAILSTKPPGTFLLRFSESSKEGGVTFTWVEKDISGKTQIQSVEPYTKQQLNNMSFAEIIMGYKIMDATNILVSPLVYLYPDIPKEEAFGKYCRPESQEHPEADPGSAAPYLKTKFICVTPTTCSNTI

| Structure (SMILES) | IC50 (STAT3 protein) | IC50 [1] | IC50 [2] | IC50 (STAT3 protein; [3]) |
| --- | --- | --- | --- | --- |
| N=C(N)NCCC[C@H](NC(=O)[C@@H]1CC[C@@H]2CCCC[C@H](NC(=O)[C@H](Cc3ccc(OP(=O)(O)O)cc3)NC(=O)OCc3ccccc3)C(=O)N21)C(=O)NCc1ccccc1 [Example 11] | > 5 µM | > 50 µM | > 100 µM |  |
| CC[C@H](NC(=O)[C@@H]1CCC2CCCC[C@H](NC(=O)[C@H](Cc3ccc(OP(=O)(O)O)cc3)NC(=O)OCc3ccccc3)C(=O)N21)C(=O)NCc1ccccc1 (stereo partly drawn) | > 10 µM | > 30 µM | > 30 µM |  |
| CCCCCCCCCCCCCCCCN1CCN(CCC(=O)N[C@@H](Cc2ccc(OP(=O)(O)O)cc2)C(=O)N[C@H]2CCCCC3CC[C@@H](C(=O)N[C@@H](Cc4c[nH]cn4)C(=O)NCc4ccccc4)N3C2=O)CC1 (stereo partly drawn) |  | < 30 µM | < 30 µM | < 5 µM |
| O=C(N[C@@H](Cc1ccc(OP(=O)(O)O)cc1)C(=O)N[C@H]1CCCC[C@H]2CC[C@@H](Cn3cc(-c4ccccc4)nn3)N2C1=O)OCc1ccccc1 [Example 9] |  | > 5 µM | > 5 µM | > 20 µM |
| NC(=O)CC[C@H](NC(=O)[C@@H]1CCC2CCCC[C@H](NC(=O)/C=C/c3ccc(OP(=O)(O)O)cc3)C(=O)N21)C(=O)NCc1ccccc1 (stereo partly drawn) [Example 56] | < 1 µM | > 100 µM | > 100 µM |  |
| CNCCCNC(=O)[C@@H]1CC[C@@H]2CCCC[C@H](NC(=O)[C@H](Cc3ccc(OP(=O)(O)O)cc3)NC(=O)OCc3ccccc3)C(=O)N21 [Example 19] |  | > 100 µM | > 100 µM | < 100 µM |
| CCCCCCCCCCCCNC(=O)[C@H](CCC(N)=O)NC(=O)[C@@H]1CCC2CCCC[C@H](NC(=O)[C@H](Cc3ccc(OP(=O)(O)O)cc3)NC)C(=O)N21 (stereo partly drawn) |  | < 30 µM | < 20 µM | < 5 µM |
| CC(=O)N[C@@H](Cc1ccc(CP(=O)(O)O)cc1)C(=O)N[C@H]1CCCC[C@H]2CC[C@@H](C(=O)N[C@@H](CCC(N)=O)C(=O)NCc3ccccc3)N2C1=O [Example 30] | < 30 µM | > 100 µM | > 100 µM |  |
| CCCCCCCCCCCCCCCCN1CCN(CCC(=O)N[C@@H](Cc2ccc(CP(=O)(O)O)cc2)C(=O)N[C@H]2CCCCC3CC[C@@H](C(=O)N[C@@H](CCC(N)=O)C(=O)NCc4ccccc4)N3C2=O)CC1 (stereo partly drawn) | > 100 µM | > 100 µM | > 100 µM |  |
| CN(C)C(=O)CCCNC(=O)[C@@H]1CC[C@@H]2CCCC[C@H](NC(=O)[C@H](Cc3ccc(OP(=O)(O)O)cc3)NC(=O)OCc3ccccc3)C(=O)N21 [Example 18] |  | > 100 µM | > 100 µM | < 30 µM |
| CCCCCCCCCCCCCCCCN1CCN(CCC(=O)N[C@@H](Cc2ccc(OP(=O)(O)O)cc2)C(=O)N[C@H]2CCCCC3CC[C@@H](C(=O)N[C@H](CO)Cc4c[nH]cn4)N3C2=O)CC1 (stereo partly drawn) |  | < 20 µM | < 20 µM | < 5 µM |
| CCCCCCCCNC(=O)[C@H](CCC(N)=O)NC(=O)[C@@H]1CCC2CCCC[C@H](NC(=O)[C@H](Cc3ccc(OP(=O)(O)O)cc3)NC)C(=O)N21 (stereo partly drawn) |  | > 100 µM | > 100 µM | < 5 µM |
| NCCC[C@H](NC(=O)[C@@H]1CC[C@@H]2CCCC[C@H](NC(=O)[C@H](Cc3ccc(OP(=O)(O)O)cc3)NC(=O)OCc3ccccc3)C(=O)N21)C(=O)NCc1ccccc1 [Example 20] | < 10 µM | > 50 µM | > 100 µM |  |
| CN(C)CCCCNC(=O)[C@@H]1CCC2CCCC[C@H](NC(=O)[C@H](Cc3ccc(OP(=O)(O)O)cc3)NC(=O)OCc3ccccc3)C(=O)N21 (stereo partly drawn) |  | > 100 µM | > 100 µM | < 30 µM |
| O=C(CCc1ccccc1)N[C@@H](Cc1ccc(OP(=O)(O)O)cc1)C(=O)N[C@H]1CCCCC2CC[C@@H](C(=O)N[C@@H](CCC(=O)NC(c3ccccc3)(c3ccccc3)c3ccccc3)C(=O)NCc3ccccc3)N2C1=O (stereo partly drawn) |  | > 100 µM | > 50 µM | < 20 µM |
| NC(=O)CC[C@H](NC(=O)[C@@H]1CC[C@@H]2CCCC[C@H](NC(=O)[C@H](Cc3ccc(OP(=O)(O)O)cc3)NC(=O)CCc3ccccc3)C(=O)N21)C(=O)NCc1ccccc1 [Example 2] | < 1 µM | > 20 µM | > 100 µM |  |

| Structure (SMILES) | IC50 (STAT3 protein) | IC50 [1] | IC50 [2] | IC50 (STAT3 protein; [3]) |
| --- | --- | --- | --- | --- |
| CCCCCCCCCCCCCCCCCCCCNC(=O)[C@H](CCC(N)=O)NC(=O)[C@@H]1CCC2CCCC[C@H](NC(=O)[C@H](Cc3ccc(OP(=O)(O)O)cc3)NC)C(=O)N21 (stereo partly drawn) |  | < 30 µM | < 30 µM | < 5 µM |
| O=C(N[C@@H](Cc1ccc(OP(=O)(O)O)cc1)C(=O)N[C@H]1CCCC[C@H]2CC[C@@H](C(=O)N[C@@H](Cc3c[nH]cn3)C(=O)NCc3ccccc3)N2C1=O)OCc1ccccc1 [Example 22] | < 10 µM | > 50 µM | > 100 µM |  |
| CCCCCCCCCCCCCCCCNC(=O)[C@H](CCC(N)=O)NC(=O)[C@@H]1CC[C@@H]2CCCC[C@H](NC(=O)[C@H](Cc3ccc(OP(=O)(O)O)cc3)NC(=O)CCN3CCOCC3)C(=O)N21 | < 5 µM | < 40 µM | < 40 µM |  |
| CNC(=O)CCCNC(=O)[C@@H]1CC[C@@H]2CCCC[C@H](NC(=O)[C@H](Cc3ccc(OP(=O)(O)O)cc3)NC(=O)OCc3ccccc3)C(=O)N21 [Example 17] |  | > 100 µM | > 100 µM | < 30 µM |
| CCCCCCCCCCCCCCCCN1CCN(CCC(=O)N[C@@H](Cc2ccc(OP(=O)(O)O)cc2)C(=O)N[C@H]2CCCCC3CC[C@@H](C(=O)NCCCC(O)CO)N3C2=O)CC1 (stereo partly drawn) |  | < 20 µM | < 20 µM | < 10 µM |
| NC(=O)CC[C@H](NC(=O)[C@@H]1CC[C@@H]2CCCC[C@H](NC(=O)CCc3ccc(CCC(=O)O)cc3)C(=O)N21)C(=O)NCc1ccccc1 [Example 5] |  | > 50 µM | > 100 µM | > 100 µM |
| C[C@H](NC(=O)[C@@H]1CC[C@@H]2CCCC[C@H](NC(=O)[C@H](Cc3ccc(OP(=O)(O)O)cc3)NC(=O)OCc3ccccc3)C(=O)N21)C(=O)NCc1ccccc1 [Example 8] | > 20 µM | > 10 µM | > 10 µM |  |
| NC(=O)CC[C@H](NC(=O)[C@@H]1CC[C@@H]2CCCC[C@H](NC(=O)[C@@H](N)Cc3ccc(CP(=O)(O)O)cc3)C(=O)N21)C(=O)NCc1ccccc1 [Example 29] | < 30 µM | > 100 µM | > 100 µM |  |
| CCCCCCCCCCCCCCCCN1CCN(CCC(=O)N[C@@H](Cc2ccc(OP(=O)(O)O)cc2)C(=O)N[C@H]2CCCCC3CC[C@@H](C(=O)NCCCCNC)N3C2=O)CC1 (stereo partly drawn) |  | < 50 µM | < 50 µM | < 10 µM |
| CCCCCCCCCCCCCCCC(=O)N[C@@H](Cc1ccc(OP(=O)(O)O)cc1)C(=O)NC1CCCC[C@H]2CC[C@@H](C(=O)N[C@@H](CCC(N)=O)C(=O)NCc3ccccc3)N2C1=O (stereo partly drawn) [Example 37] | < 10 µM | < 50 µM | < 50 µM |  |
| N[C@@H](Cc1ccc(CP(=O)(O)O)cc1)C(=O)N[C@H]1CCCC[C@H]2CC[C@@H](C(=O)N[C@@H](Cc3c[nH]cn3)C(=O)NCc3ccccc3)N2C1=O [Example 26] |  | > 100 µM | > 100 µM | > 10 µM |
| CC(C)(C)OC(=O)CCc1ccc(CCC(=O)N[C@H]2CCCC[C@H]3CC[C@@H](C(=O)NCC[C@H](O)CO)N3C2=O)cc1 [Example 3] |  | > 30 µM | > 100 µM | > 100 µM |
| CCCCCCCCCCCCCCCCNC(=O)[C@H](CCC(N)=O)NC(=O)[C@@H]1CC[C@@H]2CCCC[C@H](NC(=O)[C@H](Cc3ccc(OP(=O)(O)O)cc3)NC(=O)CCN3CCN(C)CC3)C(=O)N21 | < 5 µM | > 20 µM | > 20 µM |  |
| NC(=O)CC[C@H](NC(=O)[C@@H]1CCC2CCCC[C@H](NC(=O)CCc3ccc(OP(=O)(O)O)cc3)C(=O)N21)C(=O)NCc1ccccc1 (stereo partly drawn) | < 5 µM | > 100 µM | > 100 µM |  |
| CCCCCCCCCCCCCCCCN1CCN(CCC(=O)N[C@@H](Cc2ccc(OP(=O)(O)O)cc2)C(=O)N[C@H]2CCCCC3CC[C@@H](C(=O)N[C@@H](CCC(N)=O)C(=O)NCc4ccccc4)N3C2=O)CC1 (stereo partly drawn) |  | < 10 µM | < 10 µM | < 1 µM |
| CCCCCCCCCCCCCCCC(=O)N[C@@H](Cc1ccc(OP(=O)(O)O)cc1)C(=O)NC1CCCC[C@H]2CC[C@@H](C(=O)N[C@@H](Cc3c[nH]cn3)C(=O)NCc3ccccc3)N2C1=O (stereo partly drawn) [Example 38] | < 100 µM | < 50 µM | < 60 µM |  |
